# Source: patent publication US11154621B2, “Liponucleotide-based therapy for COPD” (priority 2017, dated 2021)
# How the values were obtained:
# [1] = tested on: elastase-induced emphysema in C57BL/6 mice; assay: Mouse model of emphysema (intratracheal elastase administration); type: in vivo; details: daily i.p. days 1-13, day 14
# Protocol: To experimentally determine the efficacy of the liponucleotides (lipoNTs) CDP-choline (CDP-CHO), CDP-ethanolamine (CDP-ETH), and CDP-diacylglycerol 16:0/16:0 (CDP-DAG) as therapeutics in a mouse model of emphysema (intratracheal elastase administration) (Yoshida S, et al. Am J Physiol Lung Cell Mol Physiol 2012 303:L852-L860).
# (§1) To induce emphysema, porcine pancreatic elastase was administered intratracheally to adult female C57BL/6 mice (n=5-10 per group) by per os intubation under light anesthesia at day 0 and day 7. LipoNTs were administered daily by the intraperitoneal route in 50 μl sterile saline at the timepoints indicated for each group.
# Analysis of elastase and lipoNT effects: Data were collected 14 days after first elastase administration in terminal experiments.
# 1. Static lung compliance (CST) was measured in live mice by the forced-oscillation method using the SciReq flexiVent computer-controlled mechanical ventilator, as in previous studies (Traylor Z P, Yet al. Am J Physiol Lung Cell Mol Physiol 2010 298:L437-L445).
# 2. Following flexiVent analysis, bronchoalveolar lavage was performed on all mice using 0.8 ml PBS. BALF total and differential cell counts (trypan-blue stained live cells and Giemsa-stained cytospins, respectively) were performed on cell pellets to assess inflammatory cell infiltrates. BALF alveolar macrophage (AM) counts were determined.
# [2] = tested on: BLEO-induced pulmonary fibrosis in C57BL/6 mice; assay: Mouse model of pulmonary fibrosis (bleomycin exposure); type: in vivo; details: for Mortality: CDP-CHO, CDP-ETH 5 mg/kg, CDP-DAG 0.5 mg/kg
# Protocol: To experimentally determine the efficacy of the liponucleotides (lipoNTs) CDP-choline (CDP-CHO), CDP-ethanolamine (CDP-ETH), and CDP-diacylglycerol 16:0/16:0 (CDP-DAG) as therapeutics in a mouse model of pulmonary fibrosis (bleomycin exposure) (Chung S, et al. Oncotarget 2016 7:17532-17546).
# as §1, with “bleomycin (BLEO)” for “porcine pancreatic elastase”, “light ketamine/xylazine” for “light”, “0.” for “0 and day 7.”
# Data were collected 21 days after first exposure to BLEO in terminal experiments.
# 2. Carotid arterial O2 saturation (SaO2) and heart rate were measured in conscious individually-identified animals by pulse oximetry using the MouseOx system.
# 3. Static lung compliance (CST) was measured in live mice by the forced-oscillation method using the SciReq flexiVent computer-controlled mechanical ventilator, as in previous studies (Traylor Z P, et al. Am J Physiol Lung Cell Mol Physiol 2010 298:L437-L445).
# 4. Following flexiVent analysis, lungs were removed and flash frozen in liquid N2 for analysis of collagen content. Soluble collagen was measured by a standard Sircol assay.
# [3] = tested on: influenza A/WSN/33 (H1N1)-infected mice; assay: Effect of influenza infection and i.p. liponucleotide treatment on lung function; type: in vivo, mouse
# [4] = infected mice, day 6, i.p. daily from 1-5 days post-infection, CDP-CHO, CDP-ETH 100 μg/mouse, CDP-DAG 10 μg/mouse
Molecule,"static lung compliance (CST) ([1]; CDP-CHO, CDP-ETH 5 mg/kg, CDP-DAG 0.5 mg/kg)",elastase-induced increase in BALF alveolar macrophages (AMs) [1],"Mortality ([2]; BLEO, daily i.p. D1-20, day 21)","Mortality ([2]; BLEO, daily i.p. D1-20, day 21, listed as CHO)","CST (ml/cmH2O ×10) ([2]; BLEO, daily i.p. D1-20, day 21)","SaO2 (%) ([2]; BLEO, daily i.p. D1-20, day 21)","Collagen ([2]; BLEO, daily i.p. D1-20, lung soluble collagen, day 21)",other beneficial effects in this model of pulmonary fibrosis ([2]; daily from 1-20 days after BLEO),"PaO2 equivalent ([3]; equivalent of SaO2 increase, from approximately 65 mmHg)","O2 carrying capacity of blood (CaO2) ([3]; equivalent of SaO2 increase, from approximately 88%)","SaO2 after CDP-choline treatment ([3]; increased from approximately 85%, infected mice)",effects of single dose treatment late in infection compared with daily treatment ([3]; infected mice),"SaO2 (%) [3, 4]","HR (bpm) [3, 4]","WET:DRY [3, 4]"
"C[N+](C)(C)CCOP(=O)(O)OP(=O)(O)OC[C@H]1O[C@@H](n2ccc(N)nc2=O)C(O)C1O (stereo partly shown) [CDP-CHO, CDP-choline]",decreases CST,enhanced,significantly attenuated BLEO-induced mortality,20%,0.38 ± 0.02 ml/cmH2O ×10,97.0 ± 1.0%,0.79 ± 0.08 mg/mL,no other beneficial effects,approximately 85 mmHg,approximately 97 % of normal,approximately 96%,as good as those of daily treatment,93.5 ± 1.0 %,,
CDP-diacylglycerol [CDP-DAG],,,,,,,,,,,,,95.2 ± 1.6 %,600 ± 10 bpm,5.8 ± 0.1
